From publication PMC9186373, “Design, synthesis, and biological evaluation of novel carbazole derivatives as potent DNMT1 inhibitors with reasonable PK properties” (Journal of Enzyme Inhibition and Medicinal Chemistry, 2022)
Read-outs that look alike come from different tables or passages of the source.

What was measured:
[1] = test system: G9a (histone H3 lysine 9 methyltransferase); test: Methylation inhibition assay (AlphaLisa), G9a; format: biochemical; conditions: 50 µM; for inhibitory activity against G9a: Figure 3; for Relative selectivity index of DNMT1 vs G9a: 1 - selected enzyme inhibition/DNMT1 inhibition
Procedure: (§1) All the compounds were first screened using an ELISA EpiQuik DNA methyltransferase (DNMT) activity/inhibitor assay kit (Epigentek). To measure the effects of the compounds on human DNMT1 activity, 200 nM purified DNMT1 was incubated with 50 µM and 100 µM of the different compounds and S-adenosylmethionine in the DNMT assay buffer in the assay plate at 37 °C for 2 h[36]. Next, every sample was incubated with the capture and detection antibody, followed by incubation with developer solution for 10 min at room temperature. The absorbance was measured at 450 nm using a POLARstar Omega microplate reader (BMG). S-Adenosylhomocysteine (AdoHcy) was used as a positive control. Methylation inhibition assays for EZH2, LSD, and G9a were performed in modified Tris, pH 9.0, buffer using AlphaLisa technology. An amount of 10 µL of the reaction system contained a corresponding concentration of SAM (Sigma) (EZH2 50 µM, LSD 50 µM, and G9a 50 µM), which was the Km value in each enzymatic reaction, plus 100 nM biotinylated peptide H3 (1–21) (synthesis by GLChina) and the relevant enzyme concentration (0.03 nM EZH2, 0.03 nM LSD, and 0.03 nM G9a). The proteins were preincubated with various compound concentrations for 15 min at room temperature before the substrate and SAM were added. After 60 min of incubation at room temperature, acceptor and donor AlphaLisa beads were added according to the manufacturer’s recommendations. The signals were read in Alpha mode with an EnSpire multimode plate reader (PerkinElmer). IC50 values were derived by fitting the data for the inhibition percentage to a dose-response curve by non-linear regression in GraphPad Prism 5.0[20].
(§2) In addition to DNMT1, there are many other methyltransferases that can bind with S-adenosyl-L-methionine (SAM) to facilitate transmethylation reactions[24]^,[25]. To investigate the selectivity of these potent compounds for DNMT1, we then evaluated the inhibitory activities against DNMT1 and other important methyltransferases at the concentration of 50 µM, including DNMT3A/3L, DNMT3B/3L, and other SAM-dependent enzymes[1]^,[2]^,[26], such as EZH2[27], LSD1[28], G9a (histone H3 lysine 9 methyltransferase)[29].
(§3) 493 Relative selectivity index
(§4) 494 Relative selectivity index of DNMT1 is calculated by formula: DNMT1-selectivity
(§5) 495 index =1 - selected enzyme inhibition/DNMT1 inhibition. The closer
(§6) 496 that this value is to 1 or even more than 1, the better DNMT1-selectivity the of the
(§7) 498 Table S1. Relative selectivity index of DNMT1
Cpd. […]

DNMT3A/3L = test: Methyltransferase enzymatic selectivity profiling, DNMT3A/3L; format: biochemical; conditions: 1 - selected enzyme inhibition/DNMT1 inhibition; 50 µM
Procedure: as §2
(§8) Here, the selectivity of non-nucleoside DNMT1 inhibitors is somewhat predictable because other methyltransferases mentioned above catalyse different substrates and share very low homology with DNMT1, even in their catalytic domain[30–32]. Subsequently, the screened compounds were evaluated in a dose-dependent assay against HCT116 (human colon cancer cell line) and A549 (human lung carcinoma cell line).
as §3, §4, §5, §6, §7
Cpd. […]

LSD1 = test: Methylation inhibition assay (AlphaLisa), LSD1; format: biochemical; conditions: 1 - selected enzyme inhibition/DNMT1 inhibition; 50 µM
Procedure: as §1, §2, §3, §4, §5, §6, §7
Cpd. […]

human DNMT1 = test: ELISA EpiQuik DNA methyltransferase (DNMT) activity/inhibitor assay; format: biochemical; conditions: 200 nM purified DNMT1, EpiQuik kit; for Inh% at 50 μM: 50 μM compound; for Inh% at 100 μM: 100 μM compound
In short: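 Purified human DNMT1 (200 nM) was incubated 2 h at 37 °C with SAM and compound at 50 µM and 100 µM. Methylation was detected by antibody-based ELISA read at 450 nm.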

[2] = test system: A549 (human lung cancer cells); test: MTT assay, A549; format: cell-based
Procedure: The human lung cancer cells (A549) and human colon cancer cells (HCT116) were cultured in an RPMI-1640 medium containing 10% FBS, 100 U/mL streptomycin, and 100 U/mL penicillin at 37 °C in a humidified atmosphere with 5% CO2. All compounds were dissolved in DMSO and stock solutions were stored at −20 °C. Reagents were freshly diluted to the marked concentrations with a culture medium before use. DMSO concentration in experimental conditions never exceeded 0.1% (v/v). All cell lines were provided by the cell laboratory, School of pharmaceutical sciences, Guangzhou Medical University.
Cell viability was detected using an MTT assay kit. Cells were seeded into 96-well plates at a density of ∼1.0 × 10^4/well. 24 h later, sextuplicate wells were treated with media and new compounds at a fixed concentration (50 µM). After 24, 48, and 72 h, the drug-containing medium was replaced by a 100 µL fresh medium with 5 mg/mL MTT solution. After 4 h of incubation, the medium with MTT was removed, and 100 µL of DMSO was added to each well. The plates were gently agitated until the purple formazan crystals were dissolved, and the OD490 was determined using a […] (Olympus BX53, Japan). The data were calculated and plotted as the percent viability compared to the control.

EZH2 = test: Methylation inhibition assay (AlphaLisa), EZH2; format: biochemical; conditions: 50 µM; for inhibitory activity against EZH2: Figure 3; for Relative selectivity index of DNMT1 vs EZH2: 1 - selected enzyme inhibition/DNMT1 inhibition
Procedure: as §1, §2, §3, §4, §5, §6, §7
Cpd. […]

DNMT3B/3L = test: Methyltransferase enzymatic selectivity profiling, DNMT3B/3L; format: biochemical; conditions: 1 - selected enzyme inhibition/DNMT1 inhibition; 50 µM
Procedure: as §2, §8, §3, §4, §5, §6, §7
Cpd. […]

[3] = 24 h, read-out: Inh % at 50 μM, A549, 24 h
[4] = 48 h, read-out: Inh % at 50 μM, A549, 48 h
[5] = 72 h, read-out: Inh % at 50 μM, A549, 72 h

SMILES | inhibitory activity against G9a [1] | Relative selectivity index of DNMT1 vs G9a [1] | Relative selectivity index of DNMT1 vs DNMT 3A/3L (DNMT3A/3L) | Relative selectivity index of DNMT1 vs LSD1 (LSD1) | Inh% at 50 μM (human DNMT1) [%] | Inh% at 100 μM (human DNMT1) [%] | inhibition at 50 µM [2, 3] [%] | inhibition at 50 µM [2, 4] [%] | inhibition at 50 µM [2, 5] [%] | inhibitory activity against EZH2 (EZH2) | Relative selectivity index of DNMT1 vs EZH2 (EZH2) | Relative selectivity index of DNMT1 vs DNMT 3B/3L (DNMT3B/3L)
CC(C)NCC(O)COC(Cn1c2ccc(F)cc2c2cc(F)ccc21)Cn1c2ccc(F)cc2c2cc(F)ccc21 (stereo not drawn) [WK-22, 1-((1,3-Bis(3,6-difluoro-9H-carbazol-9-yl)propan-2-yl)oxy)-3-(isopropylamino)propan-2-ol] | nearly no inhibitory activities | 0.9 | 0.04 | 0.02 | 99 | 100 | 64.3 | 98 | 95.7 | nearly no inhibitory activities | 0.96 | 0.03
CC(C)NCC(O)COC(Cn1c2ccccc2c2cc(F)ccc21)Cn1c2ccccc2c2cc(F)ccc21 (stereo not drawn) [WK-23, 1-((1,3-bis(3-fluoro-9H-carbazol-9-yl)propan-2-yl)oxy)-3-(isopropylamino)propan-2-ol] | nearly no inhibitory activities | 0.89 | 0.06 | 0.2 | 99 | 100 | 75.9 | 58.1 | 93.6 | nearly no inhibitory activities | 0.85 | 0.02
